The values that follow come from patent US12655041B2, “Method for operating reverse osmosis membrane device, a slime control method, and a water treatment device” (priority 2021, dated 2026).

The structures appear in SMILES notation.

One test relates to slime in a reverse osmosis membrane. Description: Test Example 1: evaluation of slime inhibition in reverse osmosis membrane (membrane fouling simulator, days to 100 kPa differential pressure). More on the design: species or system microorganism. To be noted: days for differential pressure to reach 100 kPa; substrates ethanol 50 mg/L as C, ammonium chloride 10 mg/L as N, sodium dihydrogen phosphate 0.5 mg/L as P; 25° C.; no chemical added: 8. Here is the method:
(§1) A substrate was added to raw water, and a biofouling effect of a microorganism was accelerated. Specifically, as substrates, ethanol, ammonium chloride and sodium dihydrogen phosphate were added to raw water so that the concentrations reached 50 mg/L as C, 10 mg/L as N and 0.5 mg/L as P, respectively, thereby producing water to be treated. The pH of the raw water (water to be treated) was 6 to 8, TOC was 1 mg/L, ORP was 300 mV, and the water temperature was 25° C.
This water to be treated was pressurized to 1.5 MPa with a pump and supplied as supply water (the water amount was 100 mL/min, the water pressure was 0.2 MPa, and the water temperature was 25° C.) to a concentrate compartment of an RO membrane device, and an RO membrane treatment was performed. […]
(§2) Upon the evaluation of slime inhibition in a reverse osmosis membrane, the number of days taken for the differential pressure to increase up to 100 kPa under conditions shown in Table 1 was measured using a membrane fouling simulator that is in Non-Patent Literature 1 (J. S. Vrouwenvelder et. al.), and the day where this differential pressure was reached was regarded as a day when biofouling occurred, that is, an occlusion day. It is evaluated that, as the number of days taken until this occlusion increases, slime can be inhibited more favorable.
In the case of `O=S(=O)([O-])NCl.[Na+]` [Comparative Example 1-2, Sodium monochlorosulfamate], the “Number of days until occlusion” value is 12 days.

With `Cn1sc(Cl)cc1=O` [1-3, 5-chloro-2-methyl-4-isothiazolin-3-one], the “Number of days until occlusion” value is 15 days.

The next test has the same test system. The experiment in a line: Test Example 4: number of days for the differential pressure to reach 100 kPa. More on the design: species or system microorganism. To be noted: days for differential pressure to reach 100 kPa; substrates 30 mg/L as C, 10 mg/L as N, 0.5 mg/L as P; 20° C.; no addition: 10. The protocol: as §1
This water to be treated was pressurized to 1.5 MPa with a pump and supplied as supply water (the water amount was 100 mL/min, the water pressure was […], and the water temperature was 25° C.) to a concentrate compartment of an RO membrane device, and an RO membrane treatment was performed. As the RO membrane device, a device in which one vessel was filled with a 4-inch spiral RO membrane element of an aromatic polyamide-based RO membrane (manufactured by Nitto Denko Corporation, ES20) was used. The flow rate of the supply water was 3 to 10 m^3/h per 8-inch spiral module. A change in the differential pressure means a change in the difference of the pressure at each water-passing time after the beginning of measurement from 0 kPa that is a set pressure at the time of the beginning of the measurement.
as §2
A test was performed under the same conditions as in <Test Example 1> except that water to be treated prepared by adding, as substrates, ethanol, ammonium chloride and sodium dihydrogen phosphate to raw water so that the concentrations reached 30 mg/L as C, 10 mg/L as N and 0.5 mg/L as P, respectively, was used, the water temperature of the water to be treated was set and adjusted to 20° C., and the addition periods and addition concentrations of the slime inhibitors were set as shown in Table 2.
The oxidation-based slime inhibitor is continuously added “for 30 minutes”, and the water to be treated containing the chemical is continuously passed through the RO membrane device downstream thereof “for 30 minutes”.
The organic-based slime inhibitor is continuously added “for 30 minutes”, and the water to be treated containing the chemical is continuously passed through the RO membrane device downstream thereof “for 30 minutes”. […]
With `O=S(=O)([O-])NCl.[Na+]` [4-3, Sodium monochlorosulfamate], the “Number of days until occlusion” value is 30 days.

On to `Cn1sc(Cl)cc1=O` [4-4, 5-chloro-2-methyl-4-isothiazolin-3-one], for which the “Number of days until occlusion” value is 32 days.

Turning to `Cn1sc(Cl)cc1=O` [4-5, 5-chloro-2-methyl-4-isothiazolin-3-one], the “Number of days until occlusion” value is reported as 18 days.

Turning to `O=S(=O)([O-])NCl.[Na+]` [4-2, Sodium monochlorosulfamate], the “Number of days until occlusion” value amounted to 12 days.
